Values belong to the compound of their own block, whether it stands above or below them. Peptide text beside a SMILES is read from it.
Columns and labels:
ED-B protein = biological target: T1, ED-B protein (Homo sapiens, UniProt P02751); test: SPR (BIAcore) binding strength assay on immobilized biotin-EDB; conditions: for Kd: read-out: KD = Koff/Kon
T1 construct: Biopanning on ED-B domain
Description: The bipodal peptide binder found from BPB2EDB, BPB3EDB, and BPB4EDB maturation libraries were synthesized (Anygen, Korea). The affinity measurement was conducted using BIAcore X (Biacore AB, Uppsala, Sweden). 2,000 RU of biotin-EDB was allowed to flow on the streptavidin SA chip (Biacore) for immobilization. PBS (pH 7.4) was used as a running buffer, and kinetics at different concentrations was measured under a flow rate of 30 μl per minute. The affinity was calculated using BlAevaluation software (Biacore AB, Uppsala, Sweden).

streptavidin [1] = biological target: T2, streptavidin (Streptomyces avidinii, UniProt P22629); test: Phage ELISA specificity to streptavidin versus BSA, ovalbumin and VEGF; assay type: binding; conditions: ovalbumin, VEGF coated wells
Description: In order to investigate specificities to streptavidin, of peptides (Strep_opti1 and Strep_opti2) obtained through sequencing, recombinant phages expressing these peptides were used to investigate specificities to streptavidin, BSA, ovalbumin, and VEGF. First, 5 μg/ml streptavidin, BSA, ovalbumin, and VEGF were put in a 96-well ELISA plate (50 μl per well), and then allowed to stand at 4° C. overnight. Next day, all the wells were washed three times with 0.1% PBST, and blocked at room temperature for 2 hrs using 2% BSA diluted with PBS. Then, the solution was discarded, followed by washing with 0.1% PBST three times. 800 μl of recombinant phages of each of Strep_opti1 and Strep_opti2 and 200 μl of 10% BSA were added thereto, and each 100 μl was dispensed into streptavidin, BSA, ovalbumin, and VEGF wells, followed by standing at 27° C. for 1 hr. After washing five times with 0.1% PBST solution, the HRP-conjugated anti-M13 antibody (GE Healthcare) was diluted to 1:1,000, and then the reaction was performed at 27° C. for 1 hr. After washing five times with 0.1% PBST, 100 μl of the TMB solution was dispensed into each well to induce a colorimetric reaction, and then the reaction was stopped by adding 100 μl of 1 M HCl. The absorbance was measured at 450 nm.

streptavidin [2] = biological target: T2, streptavidin; test: SPR (BIAcore) binding assay of Strep_opti1 and control peptide on immobilized streptavidin; conditions: from KD values
Description: (§1) A streptavidin-binding peptide optimized peptide and an existing peptide were synthesized (Anygen). The affinity measurement was conducted using BIAcore X (Biacore AB, Uppsala, Sweden). Here, 2000 RU of streptavidin was allowed to flow on the CM5 chip (Biacore) for immobilization. PBS (pH 7.4) was used as a running buffer, and the kinetics at different concentrations was measured under a flow rate of 30 μl per minute. The affinity was calculated using BlAevaluation software (Biacore AB, Uppsala, Sweden).

VEGFR1 = VEGFR1 (Homo sapiens, UniProt P17948); test: SPR (BIAcore) binding assay of VEGFR1_opti1 and control peptide on immobilized VEGFR1
Description: as §1, with “VEGFR1-binding” for “streptavidin-binding”, “7000” for “2000”, “VEGFR1” for “streptavidin”

T1 sequence (P02751 1271-1359 limits assumed): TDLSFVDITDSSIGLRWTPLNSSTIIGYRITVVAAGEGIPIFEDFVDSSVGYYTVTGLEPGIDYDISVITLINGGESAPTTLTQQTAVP
Sequence of VEGFR1 (P17948 27-1338, species assumed): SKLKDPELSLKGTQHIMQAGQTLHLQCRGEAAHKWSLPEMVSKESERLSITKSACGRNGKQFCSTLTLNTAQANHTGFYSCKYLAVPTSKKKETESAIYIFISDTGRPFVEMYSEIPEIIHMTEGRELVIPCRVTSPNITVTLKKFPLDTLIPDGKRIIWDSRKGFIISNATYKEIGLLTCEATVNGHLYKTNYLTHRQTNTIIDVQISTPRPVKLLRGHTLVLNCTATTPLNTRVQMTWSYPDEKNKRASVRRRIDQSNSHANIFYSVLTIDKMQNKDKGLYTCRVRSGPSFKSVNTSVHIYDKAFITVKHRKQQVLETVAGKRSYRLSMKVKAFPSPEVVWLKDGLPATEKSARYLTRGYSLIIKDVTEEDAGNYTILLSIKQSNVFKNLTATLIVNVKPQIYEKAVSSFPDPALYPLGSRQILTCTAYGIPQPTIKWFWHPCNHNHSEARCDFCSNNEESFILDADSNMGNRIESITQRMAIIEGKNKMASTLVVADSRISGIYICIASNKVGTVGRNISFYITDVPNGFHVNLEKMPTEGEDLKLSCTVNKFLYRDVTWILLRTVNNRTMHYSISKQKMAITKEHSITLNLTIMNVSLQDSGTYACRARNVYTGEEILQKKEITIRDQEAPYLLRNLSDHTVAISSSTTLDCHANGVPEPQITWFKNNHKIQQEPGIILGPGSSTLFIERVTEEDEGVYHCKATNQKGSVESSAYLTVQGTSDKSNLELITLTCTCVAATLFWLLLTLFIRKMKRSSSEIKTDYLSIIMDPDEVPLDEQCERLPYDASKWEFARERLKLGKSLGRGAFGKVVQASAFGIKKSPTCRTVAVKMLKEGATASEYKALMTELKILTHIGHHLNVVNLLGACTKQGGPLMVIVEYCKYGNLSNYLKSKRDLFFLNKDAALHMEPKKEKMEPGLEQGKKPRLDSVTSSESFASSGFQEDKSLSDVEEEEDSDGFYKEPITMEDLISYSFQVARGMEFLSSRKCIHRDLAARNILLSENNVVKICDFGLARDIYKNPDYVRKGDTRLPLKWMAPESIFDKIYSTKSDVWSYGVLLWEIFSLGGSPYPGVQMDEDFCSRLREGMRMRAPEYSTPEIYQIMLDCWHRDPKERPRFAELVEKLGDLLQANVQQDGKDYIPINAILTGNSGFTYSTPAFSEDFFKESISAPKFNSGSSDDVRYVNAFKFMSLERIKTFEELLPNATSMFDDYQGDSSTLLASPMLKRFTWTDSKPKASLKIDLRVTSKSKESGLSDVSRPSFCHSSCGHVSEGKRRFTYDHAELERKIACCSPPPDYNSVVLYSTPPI

Kd (ED-B protein; SPR, target binding kinetics): 75 nM
Compound: CC[C@H](C)[C@H](NC(=O)CNC(=O)[C@H](CCCCN)NC(=O)[C@H](Cc1c[nH]c2ccccc12)NC(=O)[C@@H](NC(=O)[C@H](Cc1c[nH]c2ccccc12)NC(=O)[C@H](CCCCN)NC(=O)CNC(=O)[C@H](CC(N)=O)NC(=O)[C@H](CCC(=O)O)NC(=O)[C@H](Cc1c[nH]c2ccccc12)NC(=O)[C@@H](NC(=O)[C@H](Cc1c[nH]c2ccccc12)NC(=O)[C@H](CO)NC(=O)CNC(=O)[C@@H](NC(=O)[C@H](C)NC(=O)[C@H](CO)NC(=O)[C@H](CO)NC(=O)[C@H](CS)NC(=O)[C@@H](N)Cc1c[nH]cn1)C(C)C)[C@@H](C)O)[C@@H](C)O)C(=O)N[C@H](C(=O)N[C@@H](CCCNC(=N)N)C(=O)N[C@@H](CC(C)C)C(=O)N[C@@H](CCC(=O)O)C(=O)N[C@@H](CCC(N)=O)C(=O)O)[C@@H](C)CC [BPB1EDB] (H-HCSSAVGSWTWENGKWTWKGIIRLEQ-OH; N-terminus and C-terminus assumed)

fold increase in affinity compared with BPB1 (ED-B protein; through the optimization system): 21 fold
Compound: CC[C@H](C)[C@H](NC(=O)CNC(=O)[C@H](CCCCN)NC(=O)[C@H](Cc1c[nH]c2ccccc12)NC(=O)[C@@H](NC(=O)[C@H](Cc1c[nH]c2ccccc12)NC(=O)[C@H](CCCCN)NC(=O)CNC(=O)[C@H](CC(N)=O)NC(=O)[C@H](CCC(=O)O)NC(=O)[C@H](Cc1c[nH]c2ccccc12)NC(=O)[C@@H](NC(=O)[C@H](Cc1c[nH]c2ccccc12)NC(=O)[C@H](CO)NC(=O)CNC(=O)[C@H](CCC(N)=O)NC(=O)[C@@H](NC(=O)[C@@H]1CCCN1C(=O)[C@H](CO)NC(=O)[C@H](CO)NC(=O)[C@H](CS)NC(=O)[C@H](CO)NC(=O)[C@@H](N)Cc1c[nH]cn1)[C@@H](C)CC)[C@@H](C)O)[C@@H](C)O)C(=O)N[C@H](C(=O)N[C@@H](CCCNC(=N)N)C(=O)N[C@@H](CC(C)C)C(=O)N[C@@H](CCC(=O)O)C(=O)N[C@@H](CCC(N)=O)C(=O)N[C@@H](CCC(N)=O)C(=O)N1CCC[C@H]1C(=O)O)[C@@H](C)CC [BPB4EDB] (H-HSCSSPIQGSWTWENGKWTWKGIIRLEQQP-OH; N-terminus and C-terminus assumed)

Koff (ED-B protein; SPR, target binding kinetics): 5.1 × 10^−4 S^−1
Kon (ED-B protein; SPR, target binding kinetics): 3.0 × 10^4 M^−1S^−1
Kd (ED-B protein; SPR, target binding kinetics): 16 nM
Compound: CC[C@H](C)[C@H](NC(=O)CNC(=O)[C@H](CCCCN)NC(=O)[C@H](Cc1c[nH]c2ccccc12)NC(=O)[C@@H](NC(=O)[C@H](Cc1c[nH]c2ccccc12)NC(=O)[C@H](CCCCN)NC(=O)CNC(=O)[C@H](CC(N)=O)NC(=O)[C@H](CCC(=O)O)NC(=O)[C@H](Cc1c[nH]c2ccccc12)NC(=O)[C@@H](NC(=O)[C@H](Cc1c[nH]c2ccccc12)NC(=O)[C@H](CO)NC(=O)CNC(=O)[C@H](CCC(N)=O)NC(=O)[C@@H](NC(=O)[C@@H]1CCCN1C(=O)[C@H](CO)NC(=O)[C@H](CO)NC(=O)[C@@H](N)CS)[C@@H](C)CC)[C@@H](C)O)[C@@H](C)O)C(=O)N[C@H](C(=O)N[C@@H](CCCNC(=N)N)C(=O)N[C@@H](CC(C)C)C(=O)N[C@@H](CCC(=O)O)C(=O)N[C@@H](CCC(N)=O)C(=O)O)[C@@H](C)CC [peptide 3] (H-CSSPIQGSWTWENGKWTWKGIIRLEQ-OH; N-terminus and C-terminus assumed)

The next lines start with the compound.

Compound: CC(C)[C@H](NC(=O)[C@H](CCC(N)=O)NC(=O)[C@@H]1CCCN1C(=O)[C@H](Cc1c[nH]cn1)NC(=O)[C@H](C)NC(=O)CNC(=O)[C@H](CCCCN)NC(=O)[C@H](Cc1c[nH]c2ccccc12)NC(=O)[C@@H](NC(=O)[C@H](Cc1c[nH]c2ccccc12)NC(=O)[C@H](CCCCN)NC(=O)CNC(=O)[C@H](CC(N)=O)NC(=O)[C@H](CCC(=O)O)NC(=O)[C@H](Cc1c[nH]c2ccccc12)NC(=O)[C@@H](NC(=O)[C@H](Cc1c[nH]c2ccccc12)NC(=O)[C@H](CO)NC(=O)CNC(=O)CNC(=O)CNC(=O)[C@H](CCCCN)NC(=O)[C@H](CCC(=O)O)NC(=O)[C@H](Cc1ccccc1)NC(=O)[C@H](CCC(N)=O)NC(=O)[C@@H]1CCCN1C(=O)[C@H](Cc1c[nH]cn1)NC(=O)[C@H](CO)NC(=O)[C@@H](N)Cc1c[nH]c2ccccc12)[C@@H](C)O)[C@@H](C)O)C(=O)N[C@@H](CCCNC(=N)N)C(=O)O [Strep_opti1] (H-WSHPQFEKGGGSWTWENGKWTWKGAHPQVR-OH; N-terminus and C-terminus assumed)
specificity (phage ELISA absorbance at 450 nm) (streptavidin [1]): specifically bind to streptavidin
fold increase in affinity compared with control peptide WSHPQFEK (streptavidin [2]): 1223 fold

Compound: GNQWFIGGGSWTWENGKWTWKGRIPKNR (VEGFR1_opti1)
SPR response increase (VEGFR1; at 5 μM peptide): 45 RU
fold increase in affinity versus control peptide (VEGFR1; from RU at 5 μM versus 200 μM): about 360 fold

Compound: WSHPQFEKGGGSWTWENGKWTWKG TLIHPM [Strep_opti2]
specificity (phage ELISA absorbance at 450 nm) (streptavidin [1]): specifically bind to streptavidin

Source: US20150330991A1, “METHOD FOR IMPROVING TARGET AFFINITY OF PEPTIDE” (GWANGJU INSTITUTE OF SCIENCE AND TECHNOLOGY, priority 2012, published 2015)
